Peptide text beside a SMILES is read from it.
How the values were obtained:
Assay type in all cases: cell-based
human GCG R = target: T1, human GCG R (Homo sapiens, UniProt P47871); assay: cAMP induction in HEK293 cells expressing human GCG R (AlphaScreen cAMP kit)
T1 construct: expressed in transfected cells

human GLP-1 R = target: T2, human GLP-1 R (Homo sapiens, UniProt P43220); assay: cAMP induction in HEK293 cells expressing human GLP-1 R (AlphaScreen cAMP kit); details: Table 2; average EC50, cAMP, HEK293 cells expressing human GLP-1 R; read-out: GLP1 R (EC50 in nM)
T2 construct: expressed in transfected cells

human GIP R = target: T3, human GIP R (Homo sapiens, UniProt P48546); assay: cAMP induction in HEK293 cells expressing human GIP R (AlphaScreen cAMP kit); details: GIP R (EC50 in nM)
T3 construct: expressed in transfected cells
T3 sequence (P48546 22-466): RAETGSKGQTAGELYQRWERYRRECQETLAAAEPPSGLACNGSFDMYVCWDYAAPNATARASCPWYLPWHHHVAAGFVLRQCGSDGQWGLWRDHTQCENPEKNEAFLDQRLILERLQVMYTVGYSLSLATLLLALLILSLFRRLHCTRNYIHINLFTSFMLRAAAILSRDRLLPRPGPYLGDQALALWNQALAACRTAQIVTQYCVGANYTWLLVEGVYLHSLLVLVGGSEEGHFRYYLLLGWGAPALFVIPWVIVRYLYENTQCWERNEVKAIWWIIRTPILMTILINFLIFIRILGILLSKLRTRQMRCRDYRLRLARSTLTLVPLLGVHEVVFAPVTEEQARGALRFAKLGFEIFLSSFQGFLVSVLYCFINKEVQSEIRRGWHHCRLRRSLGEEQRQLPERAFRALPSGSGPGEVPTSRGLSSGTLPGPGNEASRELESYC
Protocol: Briefly, HEK293 cells expressing the human GIP R, GLP-1 R or GCG R (stable cell lines generated through transfection of the cDNA for human GIP R, GLP-1 R or GCG R and selection of stable clones) were seeded at 30,000 cells/well in 96-well microtiter plates coated with 0.01% poly-L-lysine, and grown for 1 day in culture in 200 μl growth medium (DMEM, 10% FCS, Penicillin (100 IU/ml), Streptomycin (100 μg/ml)). On the day of analysis, growth medium was removed and the cells were washed once with 150 μl Tyrode's buffer (Tyrode's Salts (9.6 g/l), 10 mM HEPES, pH 7.4). […] The Assay buffer was removed and cells are lysed in 80 μl Lysis buffer (0.1% w/v BSA, 5 mM HEPES, 0.3% v/v Tween-20) per well. From each well 10 μl of lysed cells were transferred to a 384-well plate and mixed with 15 μl bead-mix (1 Unit/15 μl anti-cAMP Acceptor Beads, 1 Unit/15 μl Donor Beads, and 1 Unit/15 μl Biotinylated cAMP in Assay Buffer). The plates were mixed and incubated in the dark for an hour at room temperature before measuring using an Envision™ plate reader (Perkin-Elmer).
The resulting cAMP curves were plotted as absolute cAMP concentrations (nM) over log (test compound concentration) and analyzed using the curve fitting program XLfit.
Parameters calculated to describe both the potency as well as the agonistic activity of each test compound on the receptors were:
EC50, a concentration resulting in a half-maximal elevation of cAMP levels, reflecting the potency of the test compound.

T1 sequence (P47871 26-477): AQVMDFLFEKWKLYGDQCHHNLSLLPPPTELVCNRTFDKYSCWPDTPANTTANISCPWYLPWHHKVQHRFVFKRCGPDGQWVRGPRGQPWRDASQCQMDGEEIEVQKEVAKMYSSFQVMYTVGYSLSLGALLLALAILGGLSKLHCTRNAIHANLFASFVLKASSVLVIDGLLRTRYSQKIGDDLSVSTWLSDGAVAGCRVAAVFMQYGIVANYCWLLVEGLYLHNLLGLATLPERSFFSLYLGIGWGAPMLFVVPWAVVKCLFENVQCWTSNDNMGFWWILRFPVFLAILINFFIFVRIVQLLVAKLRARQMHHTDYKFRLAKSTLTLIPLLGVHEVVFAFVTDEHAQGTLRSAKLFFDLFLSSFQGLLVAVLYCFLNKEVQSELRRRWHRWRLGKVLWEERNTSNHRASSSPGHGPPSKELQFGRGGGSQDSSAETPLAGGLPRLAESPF
T2 sequence (P43220 24-463): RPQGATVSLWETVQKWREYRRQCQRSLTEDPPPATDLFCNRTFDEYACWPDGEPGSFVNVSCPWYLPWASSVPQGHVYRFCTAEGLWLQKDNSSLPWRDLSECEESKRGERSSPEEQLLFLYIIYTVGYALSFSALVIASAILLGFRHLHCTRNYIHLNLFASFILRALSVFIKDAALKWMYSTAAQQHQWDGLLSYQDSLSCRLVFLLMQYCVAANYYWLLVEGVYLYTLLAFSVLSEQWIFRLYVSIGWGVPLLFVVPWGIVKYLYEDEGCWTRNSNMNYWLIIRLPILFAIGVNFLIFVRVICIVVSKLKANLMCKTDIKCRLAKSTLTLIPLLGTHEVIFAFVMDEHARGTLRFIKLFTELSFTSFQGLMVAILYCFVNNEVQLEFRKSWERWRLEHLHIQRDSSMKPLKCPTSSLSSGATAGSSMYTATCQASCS

Compound `CCCCCCCCCCCCCCCC(=O)N[C@@H](CCC(=O)NCCCC[C@H](NC(=O)[C@H](CO)NC(=O)[C@H](CC(=O)O)NC(=O)[C@H](CC(C)C)NC(=O)[C@H](Cc1ccc(O)cc1)NC(=O)[C@H](CCCCN)NC(=O)[C@H](CO)NC(=O)[C@H](Cc1ccc(O)cc1)NC(=O)[C@H](CC(=O)O)NC(=O)[C@H](CO)NC(=O)[C@@H](NC(=O)[C@H](Cc1ccccc1)NC(=O)[C@@H](NC(=O)CNC(=O)[C@H](CCC(N)=O)NC(=O)C(C)(C)NC(=O)[C@@H](N)Cc1ccc(O)cc1)[C@@H](C)O)[C@@H](C)O)C(=O)N[C@@H](C)C(=O)N[C@@H](C)C(=O)N[C@@H](Cc1c[nH]cn1)C(=O)N[C@@H](CC(=O)O)C(=O)N[C@@H](Cc1ccccc1)C(=O)N[C@H](C(=O)N[C@@H](CCC(=O)O)C(=O)N[C@@H](Cc1c[nH]c2ccccc12)C(=O)N[C@@H](CC(C)C)C(=O)N[C@@H](CC(C)C)C(=O)N[C@@H](CO)C(=O)N[C@@H](C)C(N)=O)C(C)C)C(=O)O` [Compound 2] (HELM PEPTIDE1{Y.[Aib].Q.G.T.F.T.S.D.Y.S.K.Y.L.D.S.K.A.A.H.D.F.V.E.W.L.L.S.A.[am]}|PEPTIDE2{[CCCCCCCCCCCCCCCC(=O)[*:2]].[gGlu]}$PEPTIDE1,PEPTIDE2,17:R3-2:R2$$$V2.0) has an EC50 (human GCG R) of 0.046 nM, an EC50 (human GLP-1 R) of 0.089 nM and an EC50 (human GIP R; Table 2, average EC50, cAMP) of 0.35 nM.
Compound `CC[C@H](C)[C@H](NC(=O)[C@H](CO)NC(=O)[C@H](Cc1ccc(O)cc1)NC(=O)[C@H](CC(=O)O)NC(=O)[C@H](CO)NC(=O)[C@@H](NC(=O)[C@H](Cc1ccccc1)NC(=O)[C@@H](NC(=O)CNC(=O)[C@H](CCC(N)=O)NC(=O)C(C)(C)NC(=O)[C@@H](N)Cc1ccc(O)cc1)[C@@H](C)O)[C@@H](C)O)C(=O)N[C@@H](Cc1ccc(O)cc1)C(=O)N[C@@H](CC(C)C)C(=O)N[C@@H](CC(=O)O)C(=O)N[C@@H](CCC(=O)O)C(=O)N[C@@H](CCCCN)C(=O)N[C@@H](C)C(=O)N[C@@H](C)C(=O)N[C@@H](Cc1c[nH]cn1)C(=O)N[C@@H](CC(=O)O)C(=O)N[C@@H](Cc1ccccc1)C(=O)N[C@H](C(=O)N[C@@H](CCC(=O)O)C(=O)N[C@@H](Cc1c[nH]c2ccccc12)C(=O)N[C@@H](CC(C)C)C(=O)N[C@@H](CC(C)C)C(=O)N[C@@H](CO)C(=O)N[C@@H](C)C(N)=O)C(C)C` [Compound 9] (HELM PEPTIDE1{Y.[Aib].Q.G.T.F.T.S.D.Y.S.I.Y.L.D.E.K.A.A.H.D.F.V.E.W.L.L.S.A.[am]}$$$$V2.0) has an EC50 (human GCG R) of 0.097 nM, an EC50 (human GLP-1 R) of 0.0055 nM and an EC50 (human GIP R; Table 2, average EC50, cAMP) of 0.056 nM.
In the case of `CC(C)C[C@H](NC(=O)[C@H](CC(C)C)NC(=O)[C@H](Cc1c[nH]c2ccccc12)NC(=O)[C@H](CCC(=O)O)NC(=O)[C@@H](NC(=O)[C@H](Cc1ccccc1)NC(=O)[C@H](CCC(=O)O)NC(=O)[C@H](CCCCN)NC(=O)[C@H](CCC(N)=O)NC(=O)[C@H](C)NC(=O)[C@H](CCCCN)NC(=O)[C@H](CCCCN)NC(=O)[C@H](CCC(=O)O)NC(=O)[C@H](CC(C)C)NC(=O)[C@H](Cc1ccc(O)cc1)NC(=O)[C@H](CCCCN)NC(=O)[C@H](CO)NC(=O)[C@H](Cc1ccc(O)cc1)NC(=O)[C@H](CC(=O)O)NC(=O)[C@H](CO)NC(=O)[C@@H](NC(=O)[C@H](Cc1ccccc1)NC(=O)[C@@H](NC(=O)CNC(=O)[C@H](CCC(N)=O)NC(=O)C(C)(C)NC(=O)[C@@H](N)Cc1ccc(O)cc1)[C@@H](C)O)[C@@H](C)O)C(C)C)C(=O)N[C@@H](CO)C(=O)N[C@@H](C)C(N)=O` [Compound 22] (HELM PEPTIDE1{Y.[Aib].Q.G.T.F.T.S.D.Y.S.K.Y.L.E.K.K.A.Q.K.E.F.V.E.W.L.L.S.A.[am]}$$$$V2.0), the EC50 (human GCG R) is reported as 0.76 nM, the EC50 (human GLP-1 R) is reported as 0.028 nM and the EC50 (human GIP R; Table 2, average EC50, cAMP) is reported as 0.18 nM. It also gave an EC50 (human GIP R; Table 2b (most comprehensive data), average EC50, cAMP) of 0.03 nM.

From patent US10131702B2, “Glucagon-GLP-1-GIP triple agonist compounds” (priority 2013, dated 2018)
